Assay results taken from patent US5272268A, “Dipeptide derivatives” (Shionogi & Co., Ltd., priority 1990, dated 1993).
Changes are numbered by the printed parent chain. Each block holds one compound with its values, some of them ahead of it.

Assays:
[1] = molecular target: T1, intrinsic renin contained in the renatured human plasma (Homo sapiens, UniProt P00797); test: Renin inhibition in vitro (angiotensin I production in renatured human plasma, RIA); assay type: biochemical; conditions: 60 minutes incubation, read-out: IC50 (concentration which inhibits renin activity by 50%)
T1 construct: intrinsic renin contained in the renatured plasma; tissue Ortho Bi-Level Plasma Renin Control; host or cells: human plasma (lyophilized, renatured in water)
T1 sequence (P00797 67-406): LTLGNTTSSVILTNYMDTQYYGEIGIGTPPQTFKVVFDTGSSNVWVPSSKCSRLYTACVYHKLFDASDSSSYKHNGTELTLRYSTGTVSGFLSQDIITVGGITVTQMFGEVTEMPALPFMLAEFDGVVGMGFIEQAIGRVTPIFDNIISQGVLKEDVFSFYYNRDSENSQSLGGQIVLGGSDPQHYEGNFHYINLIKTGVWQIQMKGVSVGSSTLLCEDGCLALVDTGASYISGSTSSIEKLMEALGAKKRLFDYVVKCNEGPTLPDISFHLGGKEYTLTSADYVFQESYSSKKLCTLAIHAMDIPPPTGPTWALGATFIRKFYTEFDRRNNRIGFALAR
Experimental: Commercially available lyophilized human plasma (Ortho, Bi-Level Plasma Renin Control) was renatured by dissolving in water. Angiotensinogen was allowed to react with intrinsic renin contained in the renatured plasma to generate angiotensin I (AI), which was quantitatively measured with radioimmunoassay (RIA). Thus, potency of the plasma renin was determined on the basis of the AI production. For this purpose, Renin RIA kit (RENIN' RIABEAD®) manufacture by Dinabott was used. All of the reagents necessary for the measurement of the AI production were available from the attachment of the kit, and the measurement was conducted according to the manufacturer's direction.
To the plasma (0.2 ml) were added all of the reagents, and the mixture was combined with either of sample solutions (0.002 ml) of various concentrations which had been prepared by dissolving a test compound in different amount of ethanol. Ethanol (0.002 ml) containing no test compound was used as a control solution. The amount of AI produced was measured after 60 minutes incubation. Renin inhibition potency of test compound was determined by comparing the amount of AI produced by a sample solution with that produced by a control solution.

Plasma renin activity = molecular target: T2, Plasma renin activity (Macaca fascicularis, UniProt Q6DLS0); test: Renin inhibition in vivo (plasma renin activity after oral administration to hyperrenin monkeys); parameters: species or system Crab-eating monkeys (Cynomolgus monkeys); conditions: low sodium diet + furosemide; for Renin inhibition potency, 4 h: 4 h after administration; for Renin inhibition potency, 8 h: 8 h after administration
T2 construct: Two milliliters of blood was collected from femoral vein; from tissue; host or cells: plasma of cynomolgus monkeys made hyperreninemic by low sodium diet and furosemide
T2 sequence (Q6DLS0 67-406): T1 sequence (P00797 67-406) with T2A, I148L, S169A
Experimental: Crab-eating monkeys (Cynomolgus monkeys) (2.8-5.0 kg) were fed on low sodium diet (Na 7.15 mg/100 g feed) for six days, during which the monkeys intramuscularly received furosemide (2 mg/kg body weight) every other day from the second day of the experiment, in order to make the monkeys hyperrenin condition.
After seven days from the low sodium feeding, the monkeys were restrained on a monkey chair. Compounds to be tested are dissolved in 0.1 M citric acid/physiological saline or suspended in water with addition of β-cyclodextrin, and orally administered to the monkeys using a stomach probe (15 mg/kg body weight). […] For the blood collection, an injection syringe containing 30 μl of 6% aqueous EDTA·2Na solution was used. The collected blood was transferred into a test tube and centrifuged (3000 rpm, 10 minutes) at 4° C., and the resultant supernatant was used to determine the renin content. Plasma renin activity (AI(ng)/ml/h value) was measured using Radioimmunoassy kit commercially available from Dinabott Co. in the same manner as in the foregoing in vitro test. Renin inhibition potencies of the compounds tested, which were expressed as a percentage of renin activity relative to the activity before the administration, are listed in Table 12.

IC50 [1]: 3.75 nM
Compound: O=C(C[C@H](O)[C@H](CC1CCCCC1)NC(=O)[C@H](Cc1cscn1)NC(=O)[C@@H](CC(=O)N1CCOCC1)Cc1cccc2ccccc12)NCCN1CCOCC1 [ES-6864, reference compound]

Compound: CC(C)(C)S(=O)(=O)C[C@@H](Cc1ccccc1)C(=O)N[C@@H](Cc1c[nH]cn1)C(=O)N[C@@H](CC1CCCCC1)[C@@H](O)CC(=O)c1ccncc1 [Example 1, 3-t-Butylsulfonyl-2(S)-phenylmethylpropionyl-His-1(S)-cyclohexylmethyl-2(S)-hydroxy-4-oxo-4-(4-pyridyl)butylamide]
IC50 [1]: 6.09 nM | Renin inhibition potency, Max (Plasma renin activity; 30 mg/kg orally): 33% | Renin inhibition potency, Mean (Plasma renin activity; 30 mg/kg orally): 22% | Renin inhibition potency, 4 h (Plasma renin activity; 30 mg/kg orally): 22%

IC50 [1]: 39.2 nM
Compound: COc1ccc(C(=O)C[C@H](O)[C@H](CC2CCCCC2)NC(=O)[C@H](Cc2c[nH]cn2)NC(=O)[C@H](Cc2ccccc2)CS(=O)(=O)C(C)(C)C)cc1 [Example 22]

IC50 [1]: 14.5 nM
Compound: CC(C)S(=O)(=O)C[C@@H](Cc1ccccc1)C(=O)N[C@@H](Cc1c[nH]cn1)C(=O)N[C@@H](CC1CCCCC1)[C@@H](O)CC(=O)c1ccccc1 [Example 37]

IC50 [1]: 39.2 nM
Compound: CCS(=O)(=O)C[C@@H](Cc1ccccc1)C(=O)N[C@@H](Cc1c[nH]cn1)C(=O)N[C@@H](CC1CCCCC1)[C@@H](O)CC(=O)c1ccccc1 [Example 38]

IC50 [1]: 18.1 nM | Renin inhibition potency, Max (Plasma renin activity; 15 mg/kg orally): 44% | Renin inhibition potency, Mean (Plasma renin activity; 15 mg/kg orally): 30% | Renin inhibition potency, 4 h (Plasma renin activity; 15 mg/kg orally): 44%
Compound: O=C(C[C@H](O)[C@H](CC1CCCCC1)NC(=O)[C@H](Cc1c[nH]cn1)NC(=O)[C@@H](CC(=O)N1CCOCC1)Cc1cccc2ccccc12)c1ccccc1 [Example 40]

IC50 [1]: 13 nM
Compound: O=C(C[C@H](O)[C@H](CC1CCCCC1)NC(=O)[C@H](Cc1c[nH]cn1)NC(=O)[C@@H](CC(=O)N1CCOCC1)Cc1cccc2ccccc12)c1ccncc1 [Example 42]

IC50 [1]: 0.36 nM | Renin inhibition potency, Max (Plasma renin activity; 15 mg/kg orally): 96% | Renin inhibition potency, Mean (Plasma renin activity; 15 mg/kg orally): 85% | Renin inhibition potency, 4 h (Plasma renin activity; 15 mg/kg orally): 94% | Renin inhibition potency, 8 h (Plasma renin activity; 15 mg/kg orally): 73%
Compound: O=C(N[C@@H](CC1CCCCC1)[C@@H](O)CNS(=O)(=O)N1CCOCC1)[C@H](Cc1cscn1)NC(=O)[C@H](Cc1ccccc1)NS(=O)(=O)N1CCOCC1 [Example 53]

IC50 [1]: 0.7 nM | Renin inhibition potency, Max (Plasma renin activity; 15 mg/kg orally): 93% | Renin inhibition potency, Mean (Plasma renin activity; 15 mg/kg orally): 72% | Renin inhibition potency, 4 h (Plasma renin activity; 15 mg/kg orally): 82% | Renin inhibition potency, 8 h (Plasma renin activity; 15 mg/kg orally): 85%
Compound: CN(C)S(=O)(=O)NCC(O)C(CC1CCCCC1)NC(=O)C(Cc1cscn1)NC(=O)C(Cc1ccccc1)NS(=O)(=O)N1CCOCC1 (centres unmarked) [Example 56]

IC50 [1]: 1.24 nM
Compound: CC(C)(C)S(=O)(=O)C[C@@H](Cc1ccccc1)C(=O)N[C@@H](Cc1cscn1)C(=O)N[C@@H](CC1CCCCC1)[C@@H](O)CNS(=O)(=O)c1ccccc1 [Example 62]

IC50 [1]: 0.53 nM
Compound: CC(C)(C)S(=O)(=O)CC(Cc1ccccc1)C(=O)NC(Cc1cscn1)C(=O)NC(CC1CCCCC1)C(O)CNS(C)(=O)=O (centres unmarked) [Example 69]

IC50 [1]: 21.3 nM
Compound: CC(C)OC(=O)C(O)C(CC1CCCCC1)NC(=O)[C@H](Cc1cnc[nH]1)NC(=O)[C@@H](CC(=O)N1CCOCC1)Cc1cccc2ccccc12 (some centres unmarked) [KRI-1314, reference compound]
